Results reported in patent US5798379A, “UCS1025 compounds” (Kyowa Hakko Kogyo Co., Ltd., priority 1996, dated 1998).
≈ marks a conversion by molar mass, not a printed value.

What was measured:
[1] = test system: human renal carcinoma ACHN; experiment: Growth inhibition against human renal carcinoma ACHN cells (MTT); type: cell-based; conditions: 72 hours
Method: (§1) Growth inhibition against human mammary carcinoma MCF-7, human cystocarcinoma T24, human epidermoid carcinoma A431 and human renal carcinoma ACHN cells:
(§2) Respective cells were dispensed into a 96 well microtiter plate (Nunc #167008) in 1×10^3 cells/well portions in the case of MCF-7 and T24 or in 1.5×lO^3 cells/well portions in the case of A431 and ACHN and cultured at 37° C. for 24 hours in a 5% carbon dioxide incubator. Thereafter, 30 mM of UCS1025A and 30 mM of UCS1025B were each serially diluted and added to the wells in 50 μl portions. The final concentration of each solution becomes 100 μM at the maximum at this stage. They were cultured again at 37° C. for 72 hours in the 5% carbon dioxide incubator. Five hours prior to the completion of the culturing, MTT [3-(4,5-dimethylthiazo-2-yl)-2,5-diphenyltetrazolium bromide, Sigma] which had been dissolved in the culture to a final concentration of 1 mg/ml was dispensed into the plate in 50 μl/well portions. After completion of the culturing, DMSO was dispensed in 150 μl/well portions, and the resulting plate was stirred vigorously using a plate mixer to dissolve MTT-formazan crystals completely. Thereafter, absorbance at 550 nm was measured using a microplate spectrophotometer M-SPmax250 (manufactured by Wako Pure Chemical Industries). The cell growth inhibition activity was shown by the 50% inhibitory concentration IC50

[2] = test system: human mammary carcinoma MCF-7; experiment: Growth inhibition against human mammary carcinoma MCF-7 cells (MTT); type: cell-based; conditions: MCF7, 72 hours
Method: as §1, §2

[3] = test system: Enterococcus hirae ATCC 10541; experiment: Antibacterial activity by agar dilution method; type: cell-based; conditions: ATCC10541, pH 7, read-out: Minimum inhibitory concentration
Method: (§3) Antibacterial activity of UCS1025A and UCS1025B against various bacteria were measured.
(§4) The antibacterial activity was measured by an agar dilution method on media (pH 7) -composed of 3 g/L of Bacto-tryptone (manufactured by Difco), 3 g/L of meat extract, 1 g/L of yeast extract, 1 g/L of glucose and 16 g/L of agar. The antibacterial activity was shown by minimum inhibitory concentration (MIC).

[4] = test system: Bacillus subtilis No. 10707; experiment: Antibacterial activity by agar dilution method; type: cell-based; conditions: pH 7, read-out: Minimum inhibitory concentration
Method: as §3, §4

[5] = test system: Staphylococcus aureus ATCC 6538P; experiment: Antibacterial activity by agar dilution method; type: cell-based; conditions: ATCC6538P, pH 7, read-out: Minimum inhibitory concentration
Method: as §3, §4

[6] = test system: Proteus vulgaris ATCC 6897; experiment: Antibacterial activity by agar dilution method; type: cell-based; conditions: ATCC6897, pH 7, read-out: Minimum inhibitory concentration
Method: as §3, §4

human cystocarcinoma T24 = experiment: Growth inhibition against human cystocarcinoma T24 cells (MTT); type: cell-based; conditions: T-24, 72 hours
Method: as §1, §2

[7] = test system: human epidermoid carcinoma A431; experiment: Growth inhibition against human epidermoid carcinoma A431 cells (MTT); type: cell-based; conditions: A-431, 72 hours
Method: as §1, §2

Solubility = type: physicochemical
[8] = in methanol, ethyl acetate, chloroform, dimethylsulfoxide (DMSO)

| Structure (SMILES) | IC50 [1] | IC50 [2] | MIC [3] | MIC [4] | MIC [5] | MIC [6] | IC50 (human cystocarcinoma T24) | IC50 [7] | Solubility (Solubility; in hexane) | Solubility (Solubility; [8]) |
| --- | --- | --- | --- | --- | --- | --- | --- | --- | --- | --- |
| CC1C=CC2CCCCC2C1C(=O)C1C(=O)N2CCC3C(=O)OC1C32O (centres unmarked) [UCS1025A] | 58 µM | 21 µM | 1.3 µg/mL (≈ 3.62 µM) | 1.3 µg/mL (≈ 3.62 µM) | 1.3 µg/mL (≈ 3.62 µM) | 5.2 µg/mL (≈ 14.5 µM) | 51 µM | 55 µM | hardly soluble | Soluble |
| CC1C=CC2CCCCC2C1C(=O)C1(O)C(=O)N2CCC3C(=O)OC1C32O (centres unmarked) [UCS1025B] | > 100 µM | > 100 µM | 42 µg/mL (≈ 112 µM) | 83 µg/mL (≈ 221 µM) | 42 µg/mL (≈ 112 µM) | 83 µg/mL (≈ 221 µM) | > 100 µM | > 100 µM | hardly soluble | Soluble |
